The experiment relates to Plasmodium berghei. Briefly: Luciferase/luciferin-expressing antifolate-resistant parasites were used to infect a culture of HepG2 cells that were pre-incubated with compounds. Infected hepatocytes emit light due to the luciferase reaction. Assay results are presented as the percent inhibition of light emission compared to control. […]. Format: functional. The following applies: sporozoite; for IC90: read-out: LUCIFERASE INFECTION ASSAY - IC90.

The mark [1] stands for this setting: read-out: LUCIFERASE INFECTION ASSAY - IC50.

Some results are limits rather than exact numbers.

With `O=c1c(Cl)cc(C(F)(F)F)cn1Cc1csc(Nc2ccccc2)n1`, the IC90 is over 10 µM. Moreover, the IC50 (HEPG2TOX_HILL_SLOPE 6.73, HEPG2TOX_R_SQUARED 0.639, PBLUC_HILL_SLOPE 3.67, PBLUC_R_SQUARED 0.234, read-out: LUCIFERASE INFECTION ASSAY - IC50) turned out to be 8.88 µM.
For the compound `O=C(Nc1ccc2nc(Cc3ccccc3)nn2c1)Nc1cccs1`, the IC90 is over 3.33 µM. For the setting “PBLUC_HILL_SLOPE 0.558, PBLUC_R_SQUARED 0.579, read-out: LUCIFERASE INFECTION ASSAY - IC50”, the IC50 came out at 0.969 µM.
Take `COc1cccc(-c2cc3c(Nc4ccccc4)nccc3[nH]2)c1`: the IC90 came out at 3.51 µM. In addition, the IC50 (PBLUC_HILL_SLOPE 41.1, PBLUC_R_SQUARED 0.519, read-out: LUCIFERASE INFECTION ASSAY - IC50) was found to be 3.33 µM.
Turning to `Cc1nc(C2CC2)nc(SC(C)C)c1C#N`, the IC90 is over 10 µM. Besides, the IC50 (HEPG2TOX_HILL_SLOPE 17, HEPG2TOX_R_SQUARED 0.522, PBLUC_HILL_SLOPE 1.64, PBLUC_R_SQUARED 0.538, read-out: LUCIFERASE INFECTION ASSAY - IC50) turned out to be 5.26 µM.
As for `COc1ccc(C(OC(=O)c2ccccc2)c2nccc3ccccc23)cc1` (stereo not given), the IC90 is over 8.93 µM. In addition, under “HEPG2TOX_HILL_SLOPE 1.92, HEPG2TOX_R_SQUARED 0.889, PBLUC_HILL_SLOPE 0.417, PBLUC_R_SQUARED 0.183, read-out: LUCIFERASE INFECTION ASSAY - IC50”, the IC50 stood at 5.78 µM.
Take `Cc1c(C(=O)OCc2coc(-c3cccs3)n2)sc2nc3n(c(=O)c12)CCC3`: the IC90 stood at 7.63 µM. Also, the IC50 (PBLUC_HILL_SLOPE 4.64, PBLUC_R_SQUARED 0.43, read-out: LUCIFERASE INFECTION ASSAY - IC50) was 4.75 µM.
For the compound `CCOc1ccc(S(=O)(=O)N2c3ccccc3C(C(N)=O)CC2C)cc1OCC` (stereo not given), the IC90 is over 10 µM. Moreover, the IC50 under setting [1] is over 10 µM.
As for `Cn1c(=O)c2ccc(C(=O)Nc3cccc(C(=O)Nc4cccc(C(F)(F)F)c4)c3)nc2n(C)c1=O`, the IC90 was over 10 µM. Moreover, for the setting “PBLUC_HILL_SLOPE 3.03, PBLUC_R_SQUARED 0.059, read-out: LUCIFERASE INFECTION ASSAY - IC50”, the IC50 was found to be 6.54 µM.
In the case of `Cc1cccc(Cn2nc(C(C)(C)C)cc2C(=O)Nc2ccc(C(C)(C)C)cc2)c1`, the IC90 is over 8.18 µM. Further, the IC50 (FFLUC_HILL_SLOPE 3.48, FFLUC_R_SQUARED 0.696, read-out: LUCIFERASE INFECTION ASSAY - IC50) is over 8.18 µM.
For the compound `Cc1nc2ccccc2c(=O)n1-c1ccc(C(=O)NCCc2ccc3c(c2)OCCO3)cc1`, the IC90 is over 10 µM. For the same compound, under setting [1], the IC50 is over 10 µM.
As for `Cc1ccc(Oc2ccc(NC(=O)c3cc(C)on3)cc2)cc1`, the IC90 amounted to 4.67 µM. In addition, the IC50 (PBLUC_HILL_SLOPE 2.32, PBLUC_R_SQUARED 0.861, read-out: LUCIFERASE INFECTION ASSAY - IC50) was determined as 1.81 µM.
For `COc1ccc(NC(=O)c2ccc(CN(C)C3CCCCCC3)cc2)cc1`, the IC90 was over 2 µM. In addition, where the note is “PBLUC_HILL_SLOPE 0.775, PBLUC_R_SQUARED 0.25, read-out: LUCIFERASE INFECTION ASSAY - IC50”, the IC50 turned out to be 1.73 µM.
For `CCCn1c(N)c(C(=O)CSc2nc3sc(C)c(C)c3c(=O)n2-c2ccccc2)c(=O)[nH]c1=O`, the IC90 is over 10 µM. Also, the IC50 under setting [1] is over 10 µM.
For `O=C(Nc1nc(CN2CCCCC2)cs1)c1ccc2[nH]c3c(c2c1)CCCC3`, the IC90 was over 10 µM. The IC50 under setting [1] is over 10 µM.
As for `Cc1cc(C)nc(Nc2nc(C(N)Cc3ccc(C(F)(F)F)cc3)cs2)n1` (stereo not given), the IC90 was over 8.39 µM. Also, the IC50 under setting [1] was over 8.39 µM.
Turning to `COc1cc(C(=O)Nc2ccc(-c3cn4ccsc4n3)cc2)ccc1OCC(=O)N1CCOCC1`, the IC90 is over 10 µM. Further, the IC50 under setting [1] was over 10 µM.
Regarding `CC1(C)C2CC=C(/C=N/NC(=O)Cn3c(C(F)(F)F)nc4ccccc43)C1C2` (stereo not given), the IC90 was over 10 µM. Moreover, the IC50 (PBLUC_HILL_SLOPE 3.28, PBLUC_R_SQUARED 0.493, read-out: LUCIFERASE INFECTION ASSAY - IC50) came to 6.15 µM.
Consider `OC(c1cn2cc(-c3ccccc3)nc2s1)(C(F)(F)F)C(F)(F)F`, for which the IC90 stood at 1.73 µM. Where the note is “PBLUC_HILL_SLOPE 1.37, PBLUC_R_SQUARED 0.781, read-out: LUCIFERASE INFECTION ASSAY - IC50”, the IC50 was 0.348 µM.
On to `Cc1nn(-c2ccccc2Cl)c(Cl)c1/C=N/Nc1ccccc1Cl`, for which the IC90 is 7.32 µM. Moreover, the IC50 (PBLUC_HILL_SLOPE 3.24, PBLUC_R_SQUARED 0.794, read-out: LUCIFERASE INFECTION ASSAY - IC50) was determined as 3.72 µM.
With `O=C(Cc1cn(-c2ccccc2)nc1-c1ccc(Cl)cc1)NCc1ccc(Cn2ccnc2)cc1`, the IC90 is over 10 µM. Further, under “PBLUC_HILL_SLOPE 23, PBLUC_R_SQUARED 0.395, read-out: LUCIFERASE INFECTION ASSAY - IC50”, the IC50 turned out to be 9.71 µM.
`COCc1cccc(-c2cc(-c3cccc4ccccc34)cnc2N)c1`: the IC90 was 1.23 µM. In addition, for the setting “HEPG2TOX_HILL_SLOPE 1.78, HEPG2TOX_R_SQUARED 0.808, PBLUC_HILL_SLOPE 16.4, PBLUC_R_SQUARED 0.784, read-out: LUCIFERASE INFECTION ASSAY - IC50”, the IC50 stood at 1.08 µM.
Regarding `O=C(COC(=O)Cc1ccsc1)Nc1cc(Cl)ccc1-n1cncn1`, the IC90 was over 10 µM. Moreover, the IC50 under setting [1] was over 10 µM.
Consider `COc1cccc(C(c2c(-c3ccccc3)n(O)c3ccccc23)N2CCOCC2)c1` (stereo not given), for which the IC90 was over 10 µM. In addition, where the note is “FFLUC_HILL_SLOPE 161, FFLUC_R_SQUARED 0.573, read-out: LUCIFERASE INFECTION ASSAY - IC50”, the IC50 was over 10 µM.
In the case of `O=C(/C=C/c1ccc(Cl)c([N+](=O)[O-])c1)c1ccc(NC2=NCCCS2)cc1`, the IC90 turned out to be 9.95 µM. For the same compound, the IC50 (HEPG2TOX_HILL_SLOPE 9.82, HEPG2TOX_R_SQUARED 0.995, PBLUC_HILL_SLOPE 5.88, PBLUC_R_SQUARED 0.401, read-out: LUCIFERASE INFECTION ASSAY - IC50) is 6.85 µM.
Regarding `C(=N\c1nc2ccccc2nc1N1CCOCC1)/N1CCN(C(c2ccccc2)c2ccccc2)CC1`, the IC90 is over 10 µM. Also, under setting [1], the IC50 was over 10 µM.
As to `Cc1nn(-c2ccccc2)c(Oc2ccccc2)c1/C=C1\C(=O)Nc2ccccc21`, the IC90 was 1.95 µM. The IC50 (HEPG2TOX_HILL_SLOPE 0.509, HEPG2TOX_R_SQUARED 0.727, PBLUC_HILL_SLOPE 1.23, PBLUC_R_SQUARED 0.54, read-out: LUCIFERASE INFECTION ASSAY - IC50) was 0.328 µM.
With `COc1ccc(NC(=O)c2cccc(C3(CNCc4ccc(F)c(F)c4)CC3)c2)cn1`, the IC90 is over 10 µM. Besides, the IC50 (PBLUC_HILL_SLOPE 17.1, PBLUC_R_SQUARED 0.0793, read-out: LUCIFERASE INFECTION ASSAY - IC50) came to 9.92 µM.
`CCCCn1c(CSc2ccccn2)cn(-c2nnc(C(C)(C)C)s2)c1=O`: the IC90 was over 8.18 µM. For the same compound, the IC50 under setting [1] is over 8.18 µM.
For the compound `CC(=O)NCCc1nccn1Cc1ccccc1`, the IC90 is over 10 µM. Besides, the IC50 under setting [1] was over 10 µM.
Consider `O=C(Cn1c(CN2CCCCC2)nc2ccccc2c1=O)Nc1ccccc1Oc1ccccc1`, for which the IC90 is over 10 µM. Besides, the IC50 under setting [1] is over 10 µM.
On to `Cn1c(SCc2nc3ccc(Cl)cc3n2CCO)nc2scc(-c3ccc(F)cc3)c2c1=O`, for which the IC90 is 3.59 µM. In addition, the IC50 (PBLUC_HILL_SLOPE 30.6, PBLUC_R_SQUARED 0.504, read-out: LUCIFERASE INFECTION ASSAY - IC50) is 3.34 µM.
On to `O=C(CC(=O)Nc1ccc(Cl)cn1)Nc1ccc(Cl)c(Cl)c1`, for which the IC90 worked out at 8.05 µM. Moreover, the IC50 (HEPG2TOX_HILL_SLOPE 5.65, HEPG2TOX_R_SQUARED 0.964, PBLUC_HILL_SLOPE 4.27, PBLUC_R_SQUARED 0.168, read-out: LUCIFERASE INFECTION ASSAY - IC50) turned out to be 4.81 µM.
On to `Cc1nn(Cc2ccccc2Cl)c(C)c1CN(C)C(=O)/C=C/c1cnn(-c2ccccc2)c1`, for which the IC90 was 9.8 µM. Under “HEPG2TOX_HILL_SLOPE 2.95, HEPG2TOX_R_SQUARED 0.991, PBLUC_HILL_SLOPE 3.77, PBLUC_R_SQUARED 0.729, read-out: LUCIFERASE INFECTION ASSAY - IC50”, the IC50 stood at 5.47 µM.
Consider `O=C(Nc1sc2c(c1-c1nc3ccccc3[nH]1)CCCC2)c1nc(-c2ccccc2)n(-c2ccccc2)n1`, for which the IC90 is over 10 µM. Also, under setting [1], the IC50 was 9.63 µM.
For `O=C(Nc1ccccc1)N1CCC(C(=O)N2CCN(C(=O)c3ccccc3Cl)CC2)CC1`, in that order: over 10 µM and over 10 µM.
For `CCc1ccc(Cl)c(CC)c1NC(=O)Cc1c(C)nn(CC(C)C)c1C`, the IC90 came out at 4.06 µM. For the same compound, the IC50 (PBLUC_HILL_SLOPE 11.4, PBLUC_R_SQUARED 0.518, read-out: LUCIFERASE INFECTION ASSAY - IC50) worked out at 3.35 µM.
As for `COc1ccc(-c2cc(-c3ccc(O)cc3)cnc2N)cn1`, the IC90 was 10.6 µM. The IC50 (PBLUC_HILL_SLOPE 26.5, PBLUC_R_SQUARED 0.457, read-out: LUCIFERASE INFECTION ASSAY - IC50) came to 9.73 µM.
Turning to `CCN(CC)C(=O)CN1CCN(C(=O)c2ccc(S(=O)(=O)N3CCOCC3)cc2)CC1`, the IC90 is over 10 µM. Moreover, the IC50 under setting [1] is over 10 µM.
`CNc1nc2cnc(Nc3cc(C(F)(F)F)ccc3F)cc2n1-c1ccccc1`: the IC90 was over 10 µM. Also, under “PBLUC_HILL_SLOPE 2.9, PBLUC_R_SQUARED 0.508, read-out: LUCIFERASE INFECTION ASSAY - IC50”, the IC50 turned out to be 6.14 µM.
Consider `Nc1cccc(-c2ccnc3n[nH]c(-c4cccc(Cl)c4)c23)c1`, for which the IC90 worked out at 7.12 µM. Also, the IC50 (HEPG2TOX_HILL_SLOPE 22.1, HEPG2TOX_R_SQUARED 0.878, PBLUC_HILL_SLOPE 1.59, PBLUC_R_SQUARED 0.529, read-out: LUCIFERASE INFECTION ASSAY - IC50) is 1.79 µM.

For orientation: IC50 means the concentration that gives 50% inhibition. Usually IC90 stands for the concentration needed for an effect of 90%.

For the origin of these results see ChEMBL document CHEMBL4483862, “Open-source discovery of chemical leads for next-generation chemoprotective antimalarials” (2018).
